The source of these data is article PMC3199943, “Screening the MayBridge Rule of 3 Fragment Library for Compounds That Interact with the Trypanosoma brucei myo-Inositol-3-Phosphate Synthase and/or Show Trypanocidal Activity” (Molecular Biology International, 2011).

For one assay, the system named is A549 cells. Put plainly: Cytotoxicity against A549 cells, Alamar Blue. The format is cell-based. The following applies: Supplementary Table 1, compound 0.5 mM, percentage of controls (n=1); for viability at 500 µM: Homo sapiens, A549, 65 h. The method, boiled down:
(§1)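 Viability by Alamar Blue (5 h) after ~65 h drug treatment; seeding density 2 × 10^4 cells/well in DMEM supplemented with 10% FCS and 2 mM L-Glutamine.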

In a further assay the test system is HeLa cells. Nature of the assay: cells. The following applies: for viability at 500 µM: 65 h; for HeLa Cells Alamar Blue: Supplementary Table 1. The method, boiled down: as §1
(Resazurin is reduced to fluorescent resorufin, in cell work by metabolically active cells.)

Setting [1] is: Homo sapiens, HeLa, read-out: HeLa Cells Alamar Blue.
The mark [2] stands for this setting: Homo sapiens, HeLa, read-out: HeLa Cells Alamar Blue, Supplementary Table 1, compound 0.5 mM, percentage of controls, mean ± SD (n=3) or SE (n=2).
[3] abbreviates: compound 0.5 mM, percentage of controls, mean ± SD (n=3) or SE (n=2).

SMILES strings stand for the structures. Counter-ions that a name gives are not always drawn. Like-named read-outs stand apart in the source and are kept apart here.

With `OCCc1coc2ccccc12` [compound 284, 2‐benzo[b]furan‐3‐ylethanol], the viability at 500 µM with A549 cells came to 63.3%; in the assay on HeLa cells (setting [1]), 58.7 ± 17.4%.
On the same counts, the results for `Cc1ccc(O)c2c1CCC2` [compound 173, 7‐methylindan‐4‐ol] are 53.7% and 43.2 ± 15.6%.
For `O=C(O)C1CCCNC1` (stereo not drawn) [compound 91, 3-piperidinecarboxylic acid], the viability at 500 µM in the assay with A549 cells amounted to 103%; with HeLa cells (Homo sapiens, HeLa, read-out: HeLa Cells Alamar Blue (% survival), compound 0.5 mM, percentage of controls), 76.6 ± 29.1%; with HeLa cells (setting [2]), 76.6 ± 29.1%.
Turning to `O=C(O)c1cccs1` [compound 85, thiophene‐2‐carboxylic acid], the viability at 500 µM with A549 cells turned out to be 119%; in the assay with HeLa cells (setting [1]), 100 ± 7.4%.
Turning to `Cn1nc(O)cc1C(F)(F)F` [compound 316, 1‐methyl‐5‐(trifluoromethyl)‐1H‐pyrazol‐3‐ol], the “A549 Cells Alamar Blue” value in the assay on A549 cells is reported as 95.3 percentage of controls. Also, in the assay on HeLa cells (setting [3]), the “HeLa Cells Alamar Blue” value is on record as 111.8 ± 17.2 percentage of controls.
Turning to `CCOC(=O)C1CCNCC1` [compound 245, ethyl piperidine‐4‐carboxylate], the results for the viability at 500 µM in the assay on A549 cells and in the assay with HeLa cells (setting [1]) were 99% and 97.8 ± 3.2%, respectively.
Turning to `CNCc1nn(C)c2ccccc12` [compound 401, N‐methyl‐N‐[(1‐methyl‐1H‐indazol‐3‐yl)methyl]amine], the “A549 Cells Alamar Blue” value in the assay on A549 cells is listed as 91.7 percentage of controls. The “HeLa Cells Alamar Blue” value with HeLa cells (setting [3]) was 92.5 ± 7.4 percentage of controls.
As to `Cc1ccc2sc(CO)cc2c1` [compound 442, 5‐Methylbenzo[b]thiophene‐2‐methanol], the values for the viability at 500 µM in the assay on A549 cells and in the assay on HeLa cells (setting [1]) were 53.7% and 71.3 ± 3.5%, respectively.
In the case of `Cn1ncc(CO)c1-c1ccccc1` [compound 530, (1‐methyl‐5‐phenyl‐1H‐pyrazol‐4‐yl)methanol], in the assay with A549 cells, the “A549 Cells Alamar Blue” value is 109.5 percentage of controls. Besides, the “HeLa Cells Alamar Blue” value with HeLa cells (setting [3]) is on record as 87.4 ± 6.2 percentage of controls.
With `Nc1ccccc1N1CCNCC1` [compound 429, 2‐piperazin‐1‐ylaniline], the viability at 500 µM in the assay on A549 cells amounted to 54.3%; in the assay with HeLa cells (setting [1]), 78.5 ± 7.7%.
For `N#Cc1ccccc1-n1cccc1` [compound 336, 2‐(1H‐pyrrol‐1‐yl)benzonitrile] the same measures were 134% and 68.5 ± 16.3%.
Take `CCOC(=O)CCc1ccc(O)cc1` [compound 585, ethyl 3‐(4‐hydroxyphenyl)propanoate]: the values for the viability at 500 µM in the assay on A549 cells and in the assay on HeLa cells (setting [1]) were 61.7% and 63.1 ± 3.9%, respectively.
On the same counts, the results for `Cc1onc(-c2ccccc2)c1CO` [compound 534, (5‐methyl‐3‐phenyl‐4‐isoxazolyl)methanol] are 62.9% and 78.8 ± 15.6%.
On the same counts, the results for `O=C(O)CSCc1ccccc1` [compound 465, 2‐(benzylthio)acetic acid] are 67.9% and 99 ± 9.3%.
For `N#Cc1cccc(-c2ccco2)c1` [compound 338, 3‐(2‐furyl)benzonitrile] the same measures were 57.8% and 18.5 ± 15.2%.
For `Cc1cc(CN)no1` [compound 33, (5‐methyl‐3‐isoxazolyl)methylamine], the viability at 500 µM in the assay with A549 cells was 75.6%; in the assay on HeLa cells (setting [1]) it was 64.3 ± 18.4%.
For `NC(=O)c1ccccc1Cl` [compound 230, 2‐chlorobenzamide] the same measures were 92.9% and 104 ± 8.8%.
Consider `COC(=O)c1cc2ccsc2[nH]1` [compound 463, methyl 6H‐thieno[2,3‐b]pyrrole‐5‐carboxylate], for which, in the assay on A549 cells, the “A549 Cells Alamar Blue” value is 59.7 percentage of controls. The “HeLa Cells Alamar Blue” value with HeLa cells (setting [3]) was 101.3 ± 11 percentage of controls.
For `Nc1ccc(-n2cccc2)cc1` [compound 250, 4‐(1H‐pyrrol‐1‐yl)aniline], the viability at 500 µM was found to be 89.1% in the assay with A549 cells and 107 ± 16.6% in the assay on HeLa cells (setting [1]). Moreover, the CC50 with HeLa cells (Homo sapiens, HeLa, read-out: HeLa ED50) amounted to 1.4 ± 0.1 mM.
Regarding `OCc1ccnc(N2CCCC2)c1` [compound 438, (2‐pyrrolidin‐1‐ylpyrid‐4‐yl)methanol], the viability at 500 µM came out at 71.9% in the assay on A549 cells and 103 ± 14.9% in the assay on HeLa cells (setting [1]).
For `NC(=O)Cc1ccc(O)cc1` [compound 192, 2‐(4‐hydroxyphenyl)acetamide] the same measures were 44.6% and 96.9 ± 9.5%.
For `NCc1ccc2occc2c1` [compound 165, 1‐benzofuran‐5‐ylmethylamine] the same measures were 90.7% and 92.6 ± 8.6%.
On the same counts, the results for `OCc1ccc(-n2cccn2)cc1` [compound 385, [4‐(1H‐pyrazol‐1‐yl)phenyl]methanol] are 118% and 83.4 ± 12.4%.
As for `Cc1cc(C)on1` [compound 4, 3,5‐dimethylisoxazole], the viability at 500 µM with A549 cells amounted to 123%; with HeLa cells (setting [1]) it was 108 ± 5.3%.
On the same counts, the results for `Cc1cccc(CO)n1` [compound 62, (6‐methylpyridin‐2‐yl)methanol] are 67.5% and 98.6 ± 7.3%.
On to `CC12CC(=O)CC1(C)CC(=O)C2` (stereo not drawn) [compound 324, 3a,6a‐dimethylperhydropentalene‐2,5‐dione], for which the “A549 Cells Alamar Blue” value in the assay with A549 cells is listed as 94.2 percentage of controls. The “HeLa Cells Alamar Blue” value with HeLa cells (setting [3]) was 103.2 ± 21.9 percentage of controls.
In the case of `CC(=O)Nc1ccc(Cl)cc1C` [compound 473, 4‐chloro‐2‐methylacetanilide], the viability at 500 µM was 76.1% in the assay on A549 cells and 109 ± 11.9% in the assay on HeLa cells (setting [1]).
For `OCc1ccc2c(c1)OCCCO2` [compound 453, 3,4‐dihydro‐2H‐1,5‐benzodioxepin‐7‐ylmethanol], in the assay with A549 cells, the “A549 Cells Alamar Blue” value is given as 51.6 percentage of controls. Also, in the assay with HeLa cells (setting [3]), the “HeLa Cells Alamar Blue” value is recorded as 86.6 ± 3.2 percentage of controls.
`FC(F)(F)c1cc[nH]n1` [compound 114, 3‐(trifluoromethyl)‐1H‐pyrazole]: the viability at 500 µM stood at 73.8% in the assay with A549 cells and 85.9 ± 6.1% in the assay with HeLa cells (setting [1]).
Take `Cc1nc2ccccn2c1CO` [compound 287, (2‐methylimidazo[1,2‐a]pyridin‐3‐yl)methanol]: the “A549 Cells Alamar Blue” value with A549 cells was 79.7 percentage of controls. In addition, in the assay with HeLa cells (setting [3]), the “HeLa Cells Alamar Blue” value was 76.2 ± 14 percentage of controls.
Turning to `OC12CC3CC(CC(C3)C1)C2` [compound 209, adamantan‐1‐ol], the viability at 500 µM in the assay with A549 cells stood at 76.1%; in the assay with HeLa cells (setting [1]), 92.2 ± 6.7%.
In the case of `OCC1COc2ccccc2O1` (stereo not drawn) [compound 319, 2,3‐dihydro‐1,4‐benzodioxin‐2‐ylmethanol], the “A549 Cells Alamar Blue” value with A549 cells is listed as 86.4 percentage of controls. In addition, the “HeLa Cells Alamar Blue” value in the assay on HeLa cells (setting [3]) was 102.6 ± 5.1 percentage of controls.
`Nc1cccc(N)c1` [compound 461, benzene‐1,3‐diamine dihydrochloride]: the viability at 500 µM in the assay with A549 cells amounted to 91.8%; in the assay with HeLa cells (setting [2]), 106 ± 10.7%.
In the case of `Oc1cccc(N2CCOCC2)c1` [compound 447, 3‐morpholinophenol], the viability at 500 µM worked out at 62.8% in the assay with A549 cells and 77.8 ± 11.8% in the assay with HeLa cells (setting [1]).
On the same counts, the results for `CNCc1cccc(N2CCCCC2)c1` [compound 656, N‐methyl‐N‐(3‐piperidin‐1‐ylbenzyl)amine] are 104% and 27.4 ± 13.3%.
For `OCc1ccc(N2CCCC2)nc1` [compound 437, [6‐(1‐pyrrolidinyl)‐3‐pyridinyl]methanol] the same measures were 44.3% and 9.3 ± 4.8%.
`Oc1ncnc2cccc(F)c12` [compound 296, 5‐fluoroquinazolin‐4‐ol]: the figures for the viability at 500 µM in the assay on A549 cells and in the assay with HeLa cells (setting [2]) were 63.7% and 92.7 ± 1.9%, respectively.
With `Cc1cc(C)n(C)n1` [compound 24, 1,3,5‐trimethyl‐1H‐pyrazole], the viability at 500 µM in the assay on A549 cells was found to be 88.5%; in the assay with HeLa cells (setting [1]), 99.7 ± 11.5%.
On the same counts, the results for `O=C1CCC2CC1CCC2=O` [compound 206, bicyclo[3.3.1]nonane‐2,6‐dione] are 42.1% and 80.8 ± 7.6%.
Turning to `NCc1ccc2c(c1)OCCO2` [compound 306, 2,3‐dihydro‐1,4‐benzodioxin‐6‐ylmethylamine], the “A549 Cells Alamar Blue” value with A549 cells was 72.7 percentage of controls. Also, in the assay with HeLa cells (setting [3]), the “HeLa Cells Alamar Blue” value was 109.2 ± 5.6 percentage of controls.
Take `c1ccc2c(c1)CCO2` [compound 49, 2,3‐dihydrobenzo[b]furan]: the viability at 500 µM in the assay on A549 cells was found to be 87.3%; in the assay on HeLa cells (setting [1]), 102 ± 8.6%.
For `Cn1nc(-c2ccccc2)cc1N` [compound 376, 1‐methyl‐3‐phenyl‐1H‐pyrazol‐5‐amine] the same measures were 64.7% and 82.6 ± 4.6%.
On the same counts, the results for `Cc1onc(-c2ccccc2)c1N` [compound 384, 5‐methyl‐3‐phenyl‐4‐isoxazolamine] are 75.5% and 80.8 ± 13.4%.
On the same counts, the results for `OCc1cc2ccccc2o1` [compound 167, 1‐benzofuran‐2‐ylmethanol] are 78.2% and 84.9 ± 19.3%.
As for `CNCc1cccnc1` [compound 57, N‐methyl‐N‐(3‐pyridylmethyl)amine], the figures for the viability at 500 µM in the assay with A549 cells and in the assay with HeLa cells (setting [1]) were 79% and 89.3 ± 9.6%, respectively.
Turning to `CC1(C)CC(=O)CC(C)(C)N1` [compound 228, 2,2,6,6‐tetramethyltetrahydro‐4(1H)‐pyridinone], the “A549 Cells Alamar Blue” value in the assay with A549 cells is reported as 61.9 percentage of controls. Further, the “HeLa Cells Alamar Blue” value with HeLa cells (setting [3]) is 101.3 ± 5.4 percentage of controls.
In the case of `COc1ccc(CC#N)cc1` [compound 161, 2‐(4‐methoxyphenyl)acetonitrile], the values for the viability at 500 µM in the assay with A549 cells and in the assay on HeLa cells (setting [2]) were 88.7% and 108 ± 3.1%, respectively.
